Laboratory results taken from ChEMBL document CHEMBL5303573, “Mapping human microbiome drug metabolism by gut bacteria and their genes” (Nature, 2019).

Experiments:
[1] = The drug is tested on Clostridium symbiosum strain: ATCC14940 for biotransformation. The drug concentrations were measured before and after a 12-h incubation by liquid-chromatography-coupled mass spectrometry (LC–MS); conditions: 2 µM
[2] = The drug is tested on Bacteroides cellulosilyticus strain: DSM14838 for biotransformation. The drug concentrations were measured before and after a 12-h incubation by liquid-chromatography-coupled mass spectrometry (LC–MS); conditions: 2 µM
[3] = segatella copri, 12 h, 2 µM
Description: The drug is tested on Prevotella copri strain: DSM18205 for biotransformation. The drug concentrations were measured before and after a 12-h incubation by liquid-chromatography-coupled mass spectrometry (LC–MS)

[4] = The drug is tested on Ruminococcus torques strain: ATCC27756 for biotransformation. The drug concentrations were measured before and after a 12-h incubation by liquid-chromatography-coupled mass spectrometry (LC–MS); assay type: ADME; design: dose 2 uM, timepoint 0 vs 12 hours; conditions: 2 µM
[5] = The drug is tested on Bifidobacterium ruminantium strain: fecal isolate for biotransformation. The drug concentrations were measured before and after a 12-h incubation by liquid-chromatography-coupled mass spectrometry (LC–MS); conditions: 2 µM
[6] = enterocloster bolteae, 12 h, 2 µM
Description: The drug is tested on Clostridium bolteae strain: ATCCBAA-613 for biotransformation. The drug concentrations were measured before and after a 12-h incubation by liquid-chromatography-coupled mass spectrometry (LC–MS)

[7] = The drug is tested on Bacteroides pectinophilus strain: ATCC43243 for biotransformation. The drug concentrations were measured before and after a 12-h incubation by liquid-chromatography-coupled mass spectrometry (LC–MS); conditions: 2 µM
[8] = The drug is tested on Ruminococcus gnavus strain: ATCC29149 for biotransformation. The drug concentrations were measured before and after a 12-h incubation by liquid-chromatography-coupled mass spectrometry (LC–MS); conditions: mediterraneibacter gnavus, 2 µM
[9] = The drug is tested on Edwardsiella tarda strain: ATCC23685 for biotransformation. The drug concentrations were measured before and after a 12-h incubation by liquid-chromatography-coupled mass spectrometry (LC–MS); conditions: 2 µM
[10] = The drug is tested on Enterobacter cancerogenus strain: ATCC35316 for biotransformation. The drug concentrations were measured before and after a 12-h incubation by liquid-chromatography-coupled mass spectrometry (LC–MS); conditions: 2 µM
[11] = The drug is tested on Clostridium sp. strain: fecal isolate for biotransformation. The drug concentrations were measured before and after a 12-h incubation by liquid-chromatography-coupled mass spectrometry (LC–MS); conditions: 2 µM
[12] = roseburia intestinalis, 12 h, 2 µM
Description: The drug is tested on Roseburia intestinalis strain: L1-82 for biotransformation. The drug concentrations were measured before and after a 12-h incubation by liquid-chromatography-coupled mass spectrometry (LC–MS)

[13] = anaerostipes sp., 12 h, 2 µM
Description: The drug is tested on Anaerostipes sp. strain: fecal isolate for biotransformation. The drug concentrations were measured before and after a 12-h incubation by liquid-chromatography-coupled mass spectrometry (LC–MS)

[14] = The drug is tested on Bacteroides vulgatus strain: ATCC8482 for biotransformation. The drug concentrations were measured before and after a 12-h incubation by liquid-chromatography-coupled mass spectrometry (LC–MS); conditions: phocaeicola vulgatus, 2 µM
[15] = bacteroides stercoris, 12 h, 2 µM
Description: The drug is tested on Bacteroides stercoris strain: ATCC43183 for biotransformation. The drug concentrations were measured before and after a 12-h incubation by liquid-chromatography-coupled mass spectrometry (LC–MS)

[16] = bacteroides fragilis, 12 h, 2 µM
Description: The drug is tested on Bacteroides fragilis strain: DS-208 for biotransformation. The drug concentrations were measured before and after a 12-h incubation by liquid-chromatography-coupled mass spectrometry (LC–MS)

[17] = The drug is tested on Bacteroides ovatus strain: ATCC8483 for biotransformation. The drug concentrations were measured before and after a 12-h incubation by liquid-chromatography-coupled mass spectrometry (LC–MS); conditions: 2 µM
[18] = The drug is tested on Blautia hansenii strain: DSM20583 for biotransformation. The drug concentrations were measured before and after a 12-h incubation by liquid-chromatography-coupled mass spectrometry (LC–MS); conditions: 2 µM
[19] = bacteroides thetaiotaomicron, 12 h, 2 µM
Description: The drug is tested on Bacteroides thetaiotaomicron strain: 7330 for biotransformation. The drug concentrations were measured before and after a 12-h incubation by liquid-chromatography-coupled mass spectrometry (LC–MS)

Row | Structure (SMILES) | Bacterial Biotransformation [1] | Bacterial Biotransformation [2] | Bacterial Biotransformation [3] | Bacterial Biotransformation [4] | Bacterial Biotransformation [5] | Bacterial Biotransformation [6] | Bacterial Biotransformation [7] | Bacterial Biotransformation [8] | Bacterial Biotransformation [9] | Bacterial Biotransformation [10] | Bacterial Biotransformation [11] | Bacterial Biotransformation [12] | Bacterial Biotransformation [13] | Bacterial Biotransformation [14] | Bacterial Biotransformation [15] | Bacterial Biotransformation [16] | Bacterial Biotransformation [17] | Bacterial Biotransformation [18] | Bacterial Biotransformation [19]
1 | CC(C)NCC(O)COc1ccc(CC(N)=O)cc1 (configuration not stated) [ATENOLOL] | Compound NOT metabolized | Compound NOT metabolized | Compound NOT metabolized | Compound NOT metabolized | Compound NOT metabolized | Compound NOT metabolized | Compound NOT metabolized | Compound NOT metabolized | Compound NOT metabolized | Compound NOT metabolized | Compound NOT metabolized | Compound NOT metabolized | Compound NOT metabolized | Compound NOT metabolized | – | – | – | – | –
2 | CCC1(c2ccc(N)cc2)CCC(=O)NC1=O (configuration not stated) [AMINOGLUTETHIMIDE] | Compound NOT metabolized | Compound NOT metabolized | Compound NOT metabolized | – | – | Compound NOT metabolized | Compound NOT metabolized | Compound NOT metabolized | Compound NOT metabolized | Compound NOT metabolized | – | Compound NOT metabolized | Compound NOT metabolized | Compound NOT metabolized | Compound NOT metabolized | Compound NOT metabolized | Compound NOT metabolized | Compound NOT metabolized | Compound NOT metabolized
3 | Cc1nc2n(c(=O)c1CCN1CCC(c3noc4cc(F)ccc34)CC1)CCCC2 [RISPERIDONE] | Compound metabolized | Compound NOT metabolized | Compound NOT metabolized | Compound NOT metabolized | – | Compound NOT metabolized | – | Compound metabolized | Compound NOT metabolized | Compound metabolized | Compound metabolized | Compound metabolized | – | Compound NOT metabolized | Compound NOT metabolized | Compound metabolized | Compound NOT metabolized | Compound metabolized | Compound NOT metabolized
4 | CN(C)CCOC(c1ccc(Cl)cc1)c1ccccn1.O=C(O)/C=C\C(=O)O (configuration not stated) [CARBINOXAMINE MALEATE] | Compound NOT metabolized | Compound NOT metabolized | Compound NOT metabolized | Compound NOT metabolized | – | Compound NOT metabolized | Compound NOT metabolized | Compound NOT metabolized | Compound NOT metabolized | Compound NOT metabolized | Compound NOT metabolized | Compound NOT metabolized | Compound NOT metabolized | Compound NOT metabolized | Compound NOT metabolized | Compound NOT metabolized | Compound NOT metabolized | Compound NOT metabolized | Compound NOT metabolized
5 | CC(=O)O[C@]1(C(C)=O)CC[C@H]2[C@@H]3C=C(Cl)C4=CC(=O)[C@@H]5C[C@@H]5[C@]4(C)[C@H]3CC[C@@]21C [CYPROTERONE ACETATE] | Compound NOT metabolized | Compound metabolized | Compound NOT metabolized | Compound NOT metabolized | Compound NOT metabolized | Compound NOT metabolized | Compound metabolized | Compound NOT metabolized | Compound NOT metabolized | – | Compound metabolized | Compound NOT metabolized | Compound NOT metabolized | Compound metabolized | Compound metabolized | Compound metabolized | Compound metabolized | Compound metabolized | Compound metabolized
6 | O=C(O)COCCN1CCN(C(c2ccccc2)c2ccc(Cl)cc2)CC1 (configuration not stated) [CETIRIZINE] | Compound NOT metabolized | Compound metabolized | Compound metabolized | Compound NOT metabolized | Compound NOT metabolized | Compound NOT metabolized | Compound metabolized | Compound NOT metabolized | Compound NOT metabolized | Compound NOT metabolized | – | Compound NOT metabolized | Compound NOT metabolized | Compound metabolized | Compound metabolized | Compound metabolized | – | Compound metabolized | Compound metabolized
7 | COC(=O)[C@H](c1ccccc1Cl)N1CCc2sccc2C1.O=S(=O)(O)O [CLOPIDOGREL BISULFATE] | Compound NOT metabolized | Compound NOT metabolized | Compound NOT metabolized | Compound NOT metabolized | – | Compound NOT metabolized | Compound NOT metabolized | Compound NOT metabolized | Compound NOT metabolized | Compound NOT metabolized | Compound metabolized | Compound NOT metabolized | Compound NOT metabolized | Compound metabolized | Compound metabolized | Compound metabolized | Compound metabolized | Compound metabolized | Compound metabolized
8 | O=C1CN2Cc3c(ccc(Cl)c3Cl)N=C2N1 [ANAGRELIDE] | Compound NOT metabolized | Compound NOT metabolized | – | Compound NOT metabolized | – | Compound NOT metabolized | Compound NOT metabolized | Compound NOT metabolized | Compound NOT metabolized | Compound NOT metabolized | Compound metabolized | – | Compound NOT metabolized | – | Compound NOT metabolized | Compound NOT metabolized | Compound NOT metabolized | Compound metabolized | Compound NOT metabolized
9 | CN/C(=N/CCSCc1nc[nH]c1C)NC#N [CIMETIDINE] | Compound NOT metabolized | Compound NOT metabolized | – | Compound NOT metabolized | Compound NOT metabolized | Compound NOT metabolized | Compound NOT metabolized | Compound NOT metabolized | Compound NOT metabolized | Compound NOT metabolized | – | Compound NOT metabolized | Compound NOT metabolized | – | Compound NOT metabolized | – | – | Compound NOT metabolized | –
10 | CN1CCC(=C2c3ccccc3CCc3cccnc32)CC1.O=C(O)/C=C\C(=O)O.O=C(O)/C=C\C(=O)O [AZATADINE MALEATE] | Compound NOT metabolized | Compound NOT metabolized | Compound NOT metabolized | Compound NOT metabolized | Compound NOT metabolized | Compound NOT metabolized | Compound NOT metabolized | Compound NOT metabolized | Compound NOT metabolized | Compound NOT metabolized | Compound NOT metabolized | Compound NOT metabolized | Compound NOT metabolized | – | Compound NOT metabolized | Compound NOT metabolized | Compound NOT metabolized | – | Compound NOT metabolized
